In article PMC3552554 (Thrombosis and haemostasis, 2010):
Blank lines part the entries; values can stand above or below the compound they belong to. Non-standard residues stand in square brackets, D forms with d. Residues, ends and D or L forms follow the SMILES beside them. Oic = O=C(O)[C@@H]1C[C@@H]2CCCC[C@@H]2N1; Phe(4-Me) = Cc1ccc(C[C@H](N)C(=O)O)cc1

Key:
[1] = 3 mg/ml in drinking water; cited from earlier work
Tail bleeding time = format: in vivo, mouse; settings: 3 mg/ml in drinking water, 5 days; n = 6; untreated 79±11 sec (n = 5), p = 0.38
[2] = cited from earlier work
[3] = administered intravenously; cited from earlier work
PC3-luc cells [4] = experiment: Matrigel invasion assay, α-thrombin-stimulated; format: cell-based, human; settings: 1 nM α-thrombin overnight, p = 0.02, 3 independent experiments
PC3-luc cells [5] = format: cell-based, human
[6] = tested on: carotid artery thrombosis; settings: cited from earlier work
PC3-luc tumors = experiment: PC3-luc tumor growth in nude mice; format: in vivo; settings: oral 3 mg/ml in drinking water
human platelets = settings: cited from earlier work
thrombin [7] = settings: direct thrombin inhibitor; cited from earlier work
thrombin [8] = target: T1, thrombin (Homo sapiens, UniProt P00734); experiment: Plasma thrombin clotting time after oral treatment; format: in vivo, mouse; settings: 3 mg/ml in drinking water
thrombin [9] = target: T1, thrombin; settings: cited from earlier work
PC3 tumor vessels = experiment: PECAM; format: in vivo, nude mice; settings: treated tumors, 3 mg/ml in drinking water; untreated 4.6 ± 2.1/hpf, p = 0.04

- mean tail bleeding time (Tail bleeding time): 92 ± 8 s
SMILES: Cc1ccc(C[C@H](NC(=O)[C@@H](C)NC(=O)[C@@H]2CCCN2C(=O)[C@@H]2C[C@@H]3CCCC[C@@H]3N2C(=O)[C@H](N)CCCN=C(N)N)C(N)=O)cc1 [FM19, D-Arg-Oic-Pro, D-Ala-Phe(pMe)] (H-[dR][Oic]P[dA][Phe(4-Me)]-NH2)
- effect on mouse bleeding time [1]: does not prolong the mouse bleeding time
- plasma concentration ([2]; 5 mg/ml steady-state oral): 173 ± 16 ng/mL
- steady-state plasma concentration ([2]; oral 3 mg/ml in the drinking water, after 5 days): 80 ng/mL
- clearance [3]: 8.2 ± 5.1 mL/min/kg
- t1/2α [3]: 32.5 ± 2.9 min

- IC50 (PC3-luc cells [5]): 15 µM
- thrombin clotting time (thrombin [8]; 5 days, n = 6, untreated 16±1 sec, p < 0.003): 22 ± 1 s
- increase in the thrombin clotting time (thrombin [8]; treated vs untreated): 1.4 fold
SMILES: Cc1ccc(C[C@H](NC(=O)[C@@H](C)NC(=O)[C@@H]2CCCN2C(=O)[C@@H]2C[C@@H]3CCCC[C@@H]3N2C(=O)[C@H](N)CCCNC(=N)N)C(N)=O)cc1 [FM19, D-Arg-Oic-Pro, D-Ala-Phe(pMe)] (H-[dR][Oic]P[dA][Phe(4-Me)]-NH2; N-terminus and C-terminus assumed)
- lowest concentration that significantly decreased the number of invading cells (PC3-luc cells [4]): 0.1 µM
- concentration that inhibited α-thrombin-induced calcium mobilization (PC3-luc cells [5]; PC3-luc cells, 1 nM α-thrombin): 1 to 100 µM
- effect on time to carotid artery occlusion ([6]; 3 mg/ml in drinking water, rose Bengal assay): does not prolong the mouse bleeding time or delay time to carotid artery occlusion
- effect on induced arterial thrombosis ([6]; 5 mg/ml in drinking water): delays induced arterial thrombosis
- prolongation of the arterial thrombosis time ([6]; 5 mg/ml steady-state oral): 2.7 fold
- mean tumor weight (PC3-luc tumors; 5 weeks, 10 tumors, untreated 0.82 ± 0.32 g, p = 0.04): 0.5 ± 0.31 g
- mean tumor growth rate (PC3-luc tumors; day 14 to day 28, bioluminescence normalized to day 7, untreated 0.55 ± 0.35, p = 0.038): 0.26 ± 0.17 fold change/day
- inhibits the threshold of α-thrombin-induced human platelet aggregation (human platelets): 8.4 ± 4.7 µM
- Ki (thrombin [7]): 4.4 ± 2.4 µM
- prolongation of the plasma thrombin clotting time (thrombin [9]; 3 mg/ml in drinking water, after 5 days): 1.4 times
- prolongation of the thrombin clotting time (thrombin [9]; 5 mg/ml steady-state oral): 7.3 fold
- number of large vessels (> 10 microns) (PC3 tumor vessels): 1.4 ± 1.4 /hpf
